Earlier results as cited in patent publication US20120129799A1, “STABLE COMPOSITION OF READY-TO-USE GEMCITABINE INJECTION” (ASTRON RESEARCH LIMITED, priority 2009, published 2012).
“Also recorded” adds a separate entry of the source.

Assays:
[1] = higher pH (5.0 to 9.0)

Which degradation products obtained (aqueous solution, pH 3.2 (sodium acetate), thermally stressed conditions) does the source give for Nc1ccn([C@@H]2O[C@H](CO)[C@@H](O)C2(F)F)c(=O)n1 [Gemcitabine, 1-(2-oxo-4-amino-1,2-dihydropyrimidin-1-yl)-2-deoxy-2,2-difluororibose] here?
Its degradation products obtained is “four significant degradation products”.

What about the “chemical stability of aqueous solution” value (aqueous solution, pH of approximately 3.0) of the same compound?
The value was “not chemically stable”.

And the “stability in aqueous solution” value (higher pH (5.0 to 9.0))?
The value was “remains stable”.

What about the stability (lower pH) of the same compound?
The stability was “poor stability”.

What about the aqueous solubility [1] of the same compound?
Its aqueous solubility is “low aqueous solubility; also recorded: very low solubility”.
